Results from US20030044909A1, “Melatonin-receptor expression cells and thier uses” (JCR PHARMACEUTICALS Co., Ltd., priority 1997, published 2003).

Target: mel-1a receptor expressed in CHO cell (Homo sapiens, UniProt P48039)
Conditions: mel-1a/CHO cells; for increase in metabolic rate via the mel-1a receptor (responsiveness, specificity): cytosensor (FIG. 11)
Protocol: mel-1a/CHO cells were cultivated in advance in the DMEM medium containing 800 μg/ml G418 and 10% FBS, and mel-1a/CHO cells in the logarithmic growth phase were washed with PBS, treated with trypsin and diluted with the same medium to a concentration of 2.5×10^5/ml. 1 ml of cell suspension was seeded in each cell cup for cytosensor, and the cell cups were filled on the outside with 2 ml of the medium and then left on standing overnight udner th conditions of 5% CO2/37° C.
While paying attention not to cause air bubbles to mingle, a spacer was disposed on the bottom of each cell cup with use of sterile tweezers on the following day. When air bubbles were below the spacer, they were to be removed with a pipette. A capsule insert was placed in each cup, while preventing air bubbles from mingling, and the medium in the 1 ml portion was added from the top to thereby bury the cup in the medium, whereby it was to be ascertained that no air bubble had been drained or mingled into the spacer and insert.
Powdered low buffer RPM1 1640 medium (MDC) was dissolved in 1 liter of distilled water for tissue culture (Cosmo Bio), and the solution was adjusted to pH 7.4 and then suction-filtered through a 0.45 μm filter.
The Cyto software package of a personal computer was started up. A measuring medium was set in a ctyosensor, and fluid feeding system was switched for the measuring medium. The fluid inside the sensor chamber was aspirated out, and the measuring medium was placed in the 1.5 ml portion in to each cell, where a capsule cell prepared in advance was disposed while preventing air bubbles from mingling. The sensor chamber was connected to a cytosensor without causing air bubbles to mingle.
Each of the prepared samples was set on the cytosensor under the conditions where the metabolic rate was stabilized. Measurement with the cytosensor was performed by switching the fluid feeding from the measuring medium to the sample solution to stimulate the cells, then putting the fluid-feeding back to the measuring medium and measuring a change caused in metabolic rate of the cells, whereby stimulation with the sample was effected for 2 min. and subsequently the measuring medium continued to be fluid-fed until the metabolic rate was returned to the level determined prior to stimulation with the sample. […] Accordingly, stimulation with the sample was given at a regular interval of 40 min.
The cytosensor was designed to detect the release outside the cell of hydrogen ions, which is understood to reflect the metabolic activity of the cell, as a rate of change in extracellular hydrogen ion concentration. Upon binding of a ligand to the receptor expressed on the cell surface, intracellular signal transduction takes place, resulting in increased cellular metabolic activity to thereby release hydrogen ions outside the cell.

Sequence of mel-1a receptor expressed in CHO cell (P48039 whole entry): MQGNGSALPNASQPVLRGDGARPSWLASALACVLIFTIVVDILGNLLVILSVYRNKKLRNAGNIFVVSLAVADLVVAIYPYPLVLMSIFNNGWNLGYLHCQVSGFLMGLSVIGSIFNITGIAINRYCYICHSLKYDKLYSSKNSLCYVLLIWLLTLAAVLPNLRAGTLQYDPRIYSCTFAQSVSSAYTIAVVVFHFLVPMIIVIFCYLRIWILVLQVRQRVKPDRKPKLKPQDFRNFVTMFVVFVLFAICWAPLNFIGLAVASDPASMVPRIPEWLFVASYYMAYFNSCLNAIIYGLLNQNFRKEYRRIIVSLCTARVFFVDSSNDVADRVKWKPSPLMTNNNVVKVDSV

Compound	increase in metabolic rate via the mel-1a receptor (responsiveness, specificity)	time for the metabolic activity to decline to the level prior to stimulation (after 2 min stimulation)
COc1ccc2[nH]cc(CCN)c2c1 [5-methoxytryptamine]	not to bring about an increase in metabolic rate	
COc1ccc2[nH]cc(C[C@H](N)C(=O)O)c2c1 [5-methoxytryptophan]	not to bring about an increase in metabolic rate	
CC(=O)NCCc1c[nH]c2ccc(O)cc12 [N-acetylserotonin]	not to bring about an increase in metabolic rate	
COc1ccc2[nH]cc(CCNC(C)=O)c2c1 [melatonin]	responds specifically to melatonin alone	about 40 min
NCCc1c[nH]c2ccc(O)cc12 [serotonin]	not to bring about an increase in metabolic rate	
N[C@@H](Cc1c[nH]c2ccccc12)C(=O)O [tryptophan]	not to bring about an increase in metabolic rate	
